Experimental data: the supplement of paper PMC10307832

How the values were obtained:
Test in all cases: relative viability (nuclei count vs DMSO), 5 days (fraction); higher = more cells survive
[1] = compound: CC1=C(C(=O)N2C=CSC2=N1)CCN3CCC(=C(C4=CC=CC=C4)C5=CC=C(C=C5)F)CC3 + C[C@]1(O)C[C@@H](c2nc(-c3ccc4ccc(-c5ccccc5)nc4c3)c3c(N)nccn32)C1 [Linsitinib] (partner 1 µM)
Summary of the method: (§1)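 Values are medians from duplicate plates. Each reflects relative viability, defined as the nuclei count of treated wells over that of vehicle wells. Lung cancer cell lines in 1536-well plates were pin-tool dosed one day after seeding with one drug alone or with a fixed anchor-drug dose plus five library-drug doses (not always all listed) in √10 steps, then fixed, stained and imaged at 4× after 5 days.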

[2] = compound: CC1=C(C(=O)N2C=CSC2=N1)CCN3CCC(=C(C4=CC=CC=C4)C5=CC=C(C=C5)F)CC3 + Nc1ncn([C@H]2C[C@H](O)[C@@H](CO)O2)c(=O)n1 [Decitabine] (partner 2 µM)
Summary of the method: as §1

[3] = compound: CC1=C(C(=O)N2C=CSC2=N1)CCN3CCC(=C(C4=CC=CC=C4)C5=CC=C(C=C5)F)CC3 + CS(=O)(=O)N1CCN(Cc2cc3nc(-c4cccc5[nH]ncc45)nc(N4CCOCC4)c3s2)CC1 [Pictilisib] (partner 1 µM)
Summary of the method: as §1

[4] = compound: CC1=C(C(=O)N2C=CSC2=N1)CCN3CCC(=C(C4=CC=CC=C4)C5=CC=C(C=C5)F)CC3 + Cc1nc(NC(=O)N2CCC[C@H]2C(N)=O)sc1-c1ccnc(C(C)(C)C(F)(F)F)c1 [Alpelisib] (partner 2 µM)
Summary of the method: as §1

Cell Line	relative viability ([1]; first compound 0.08 µM)	relative viability ([1]; first compound 0.253 µM)	relative viability ([1]; first compound 0.8 µM)	relative viability ([1]; first compound 2.53 µM)	relative viability ([1]; first compound 8 µM)	relative viability ([2]; first compound 0.08 µM)	relative viability ([2]; first compound 0.253 µM)	relative viability ([2]; first compound 0.8 µM)	relative viability ([2]; first compound 2.53 µM)	relative viability ([2]; first compound 8 µM)	relative viability ([3]; first compound 0.08 µM)	relative viability ([3]; first compound 0.253 µM)	relative viability ([3]; first compound 0.8 µM)	relative viability ([3]; first compound 2.53 µM)	relative viability ([3]; first compound 8 µM)	relative viability ([4]; first compound 0.08 µM)	relative viability ([4]; first compound 0.253 µM)	relative viability ([4]; first compound 0.8 µM)	relative viability ([4]; first compound 2.53 µM)	relative viability ([4]; first compound 8 µM)
COR-L23	0.84	0.915	1.04	1.13	0.505	0.415	0.498	0.405	0.484	0.368	0.775	0.595	0.945	0.69	0.52	0.755	1.05	0.818	0.877	0.667
LK-2	0.548	0.531	0.846	0.502	0.529	0.316	0.226	0.341	0.339	0.248	0.611	0.66	0.605	0.451	0.539	1.24	1.19	1.23	1.08	0.773
CAL-12T	0.451	0.894	0.833	0.676	0.634							0.445	0.411	0.42	0.387	0.811	1.34	1.45	1.49	0.589
NCI-H1437		1.07	1.14	1.14	0.622	0.568	0.62	0.616	0.613	0.39		0.446	0.388	0.406	0.485		1.01	1.09	1.21	0.729
NCI-H23	0.525	0.762	0.616	0.676	0.339	0.355	0.308	0.332	0.323	0.119	0.473	0.39	0.443	0.497	0.374	0.694	0.545	0.772	0.829	0.411
NCI-H727	0.194	0.227	0.298	0.437	0.295	0.861	0.974	0.888	1.03	0.792	0.352	0.351	0.35	0.354	0.423	0.507	0.509	0.493	0.738	0.425
NCI-H1915	1.16	1.12	1.07	1.18	0.832	0.305	0.277	0.265	0.253	0.257	1.21	1.01	0.969	1.04	0.835	1.1	1.11	1.07	1.06	0.782
NCI-H1648						0.528	0.587	0.513	0.456	0.453										
NCI-H3122	1.04	1.05	0.998	1.19	1.02	0.398	0.434	0.402	0.467	0.439	0.72	0.678	0.574	0.768	0.623	0.794	0.701	0.781	0.915	0.752
HCC-827	0.961	0.969	0.927	0.996	0.926	0.285	0.335	0.308	0.33	0.322	0.829	1.07	1.13	0.924	0.645	0.971	0.964	0.979	1.15	0.859
EMC-BAC-2	0.8	0.804	0.882	0.825	0.627	1.14		1.01	1.03	0.906	0.543	0.516	0.505	0.617	0.424	0.639	0.673	0.806	0.824	0.588
NCI-H522						0.729	0.629	0.793	0.592	0.686										
NCI-H2009	1.29	1.29	1.19	1.16	1.12	0.396	0.393	0.396	0.396	0.369	1.05	0.843	0.736	0.956	0.723	1.26	1.16	1.2	1.19	1.08
SK-LU-1	1.17	0.93	1.15	1.38	0.814	0.593	0.555	0.709	0.615	0.535	0.538	0.587	0.655	0.573	0.494	1.24	0.925	1.13	1.33	0.826
LU99A	0.565	0.495	0.517	0.666	0.446	1.18	0.988	0.763	0.989	0.907	0.377	0.316	0.342	0.389	0.311	0.47	0.47	0.496	0.621	0.456
NCI-H1793	0.74	0.819	1.09	0.834	0.437	0.433	0.558	0.502	0.505	0.416	0.368	0.283	0.249	0.341	0.23	0.642	0.654	0.663	0.886	0.553
LC-2-ad	0.828	0.927	0.885	0.893	0.663	0.866	0.903	0.875	0.794	0.642	0.418	0.369	0.513	0.646	0.427	0.936	0.91	0.789	0.962	0.794
IA-LM	0.538	0.518	0.822	0.427	0.411							0.354	0.211	0.345	0.234	0.554	0.576	0.845	0.988	0.465
NCI-H2405	0.999	1.14	1.1	0.862	0.744	0.785		0.8	0.724	0.617	0.426	0.432	0.481	0.531	0.347	0.74	0.798	0.914	0.792	0.731

Cell Line	relative viability ([1]; first compound 0.08 µM)	relative viability ([1]; first compound 0.253 µM)	relative viability ([1]; first compound 0.8 µM)	relative viability ([1]; first compound 2.53 µM)	relative viability ([1]; first compound 8 µM)	relative viability ([2]; first compound 0.08 µM)	relative viability ([2]; first compound 0.253 µM)	relative viability ([2]; first compound 0.8 µM)	relative viability ([2]; first compound 2.53 µM)	relative viability ([2]; first compound 8 µM)	relative viability ([3]; first compound 0.08 µM)	relative viability ([3]; first compound 0.253 µM)	relative viability ([3]; first compound 0.8 µM)	relative viability ([3]; first compound 2.53 µM)	relative viability ([3]; first compound 8 µM)	relative viability ([4]; first compound 0.08 µM)	relative viability ([4]; first compound 0.253 µM)	relative viability ([4]; first compound 0.8 µM)	relative viability ([4]; first compound 2.53 µM)	relative viability ([4]; first compound 8 µM)
HCC-366		0.645	0.594	0.946	0.265	0.389	0.318	0.324	0.394	0.243	0.128	0.152	0.194	0.129	0.121		0.428	0.471	0.605	0.243
NCI-H2342						0.547	0.809	0.697	0.834	0.645										
A-427	1.06	1.05	1.13	1.17	0.959	0.452	0.654	0.546	0.592	0.595	0.801	0.86	0.676	0.83	0.737	1.15	1.11	1.05	1.1	1.08
HCC-15	0.931	0.931	0.942	1.04	0.744	0.831	0.651	0.601	0.642	0.604	0.714	0.752	0.714	0.773	0.587	0.875	0.958	0.972	1.04	0.69
HOP-62	1.24	0.948	1	1.06	0.49	0.2	0.193	0.204	0.213	0.162	0.891	0.72	0.827	0.745	0.611	0.974	0.852	0.971	0.945	0.56
NCI-H1993	0.763		0.67	0.713	0.89	0.635	0.644	0.6	0.64	0.576	0.755		0.766	0.727	0.73	0.683		0.694	0.699	0.669
NCI-H460	0.475	0.729	0.783	1.13	0.435	0.581	0.445	0.555	0.572	0.157	0.326	0.329	0.329	0.366	0.209	0.54	0.588	0.366	0.621	0.221
ABC-1	0.655	0.894	0.723	1.02	0.504	1.2		1.04	1.18	1.02	0.817	0.973	0.827	0.684	0.483	0.989	0.935	1.08	1.09	0.605
Calu-6	0.927	1.14	0.975	0.875	0.464						0.937	0.847	0.915	1.2	0.54	1.02	1.06	0.91	0.997	0.807
UMC-11	1.06	0.972	1.04	1.33	0.824	0.591	0.714	0.58	0.633	0.53	0.953	0.811	0.8	1.15	0.733	1.1	0.765	0.977	1.29	0.732
NCI-H2126	0.712	0.729	0.801	0.797	0.716	0.588	0.518	0.599	0.614	0.514	0.493	0.509	0.477	0.516	0.579	0.764	0.766	0.742	0.816	0.785
NCI-H1703	1.14	0.819	0.585	0.888	0.482						0.298	0.248	0.266	0.295	0.248	0.372	0.316	0.278	0.463	0.306
NCI-H650		0.81	0.779	0.878	0.608	0.342	0.363	0.339	0.319	0.274		0.763	0.786	0.99	0.71		1.12	1.29	1.09	0.794
EBC-1	0.787	0.804	1.1	0.763	0.62						0.343	0.37	0.29	0.355	0.366	0.812	0.861	0.789	0.97	0.643
ChaGo-K-1						0.495	0.548	0.52	0.629	0.46	0.976	0.593	0.476	0.937	0.604					
NCI-H1299	0.901	0.98	1.09	0.932	0.607						1	0.906	0.754	1.05	0.575	0.997	1.09	1.08	1.03	0.54
NCI-H1650						0.372	0.485	0.505	0.435	0.329	0.586	0.682	0.519	0.586	0.389					
NCI-H2170						0.522	0.461	0.487	0.457	0.395	0.295	0.287	0.256	0.304	0.338	0.753	0.771	0.844	0.836	0.76
NCI-H2228	0.769	0.803	0.672	0.706	0.445						0.648	0.295	0.276	0.504	0.283	0.75	0.829	0.734	0.595	0.786
